Like-named read-outs stand apart in the source and are kept apart here.
Assays:
Assay type in all cases: cell-based
TK-10 = experiment: NCI60 one-dose screen; conditions: Homo sapiens
HCT-116 = experiment: NCI60 five-dose screen; conditions: Homo sapiens
786-0 = experiment: NCI60 five-dose screen; conditions: Homo sapiens
OVCAR-3 = experiment: NCI60 one-dose screen; conditions: Homo sapiens
MCF7 [1] = experiment: NCI60 one-dose screen; conditions: Homo sapiens
SNB-19 = experiment: NCI60 one-dose screen; conditions: Homo sapiens
SNB-75 = experiment: NCI60 one-dose screen; conditions: Homo sapiens
OVCAR-5 = experiment: NCI60 one-dose screen; conditions: Homo sapiens
MALME-3M = experiment: NCI60 five-dose screen; conditions: Homo sapiens
HCT-15 [2] = experiment: NCI60 one-dose screen; conditions: Homo sapiens
IGROV1 [3] = experiment: NCI60 five-dose screen; conditions: Homo sapiens, IGROV-1
MDA-MB-468 = experiment: NCI60 five-dose screen; conditions: Homo sapiens
[4] = system: Non-small Cell Lung Cancer panel; experiment: NCI60 five-dose screen, panel mean; conditions: Homo sapiens, read-out: GI50 Mean
T-47D = experiment: NCI60 one-dose screen; conditions: Homo sapiens, T47D, read-out: Growth percent
NCI-H522 [5] = experiment: NCI60 five-dose screen; conditions: Homo sapiens
MOLT-4 = experiment: NCI60 five-dose screen; conditions: Homo sapiens
MCF7 [6] = experiment: NCI60 five-dose screen; conditions: Homo sapiens
CAKI-1 [7] = experiment: NCI60 one-dose screen; conditions: Homo sapiens
Colon Cancer panel = experiment: NCI60 five-dose screen, panel mean; conditions: Homo sapiens, read-out: GI50 Mean
OVCAR-4 = experiment: NCI60 one-dose screen; conditions: Homo sapiens
RPMI-8226 = experiment: NCI60 five-dose screen; conditions: Homo sapiens
HCC-2998 = experiment: NCI60 five-dose screen; conditions: Homo sapiens
Leukemia panel = experiment: NCI60 five-dose screen, panel mean; conditions: Homo sapiens, read-out: GI50 Mean
Ovarian Cancer panel = experiment: NCI60 five-dose screen, panel mean; conditions: Homo sapiens, read-out: GI50 Mean
Melanoma panel = experiment: NCI60 five-dose screen, panel mean; conditions: Homo sapiens, read-out: GI50 Mean
IGROV1 [8] = experiment: NCI60 one-dose screen; conditions: Homo sapiens
M14 = experiment: NCI60 one-dose screen; conditions: Homo sapiens
NCI-H460 = experiment: NCI60 one-dose screen; conditions: Homo sapiens
LOX IMVI [9] = experiment: NCI60 one-dose screen; conditions: Homo sapiens, read-out: Growth percent
A549/ATCC = experiment: NCI60 one-dose screen; conditions: Homo sapiens
Breast Cancer panel = experiment: NCI60 five-dose screen, panel mean; conditions: Homo sapiens, read-out: GI50 Mean
SK-MEL-28 = experiment: NCI60 five-dose screen; conditions: Homo sapiens
SK-MEL-5 [10] = experiment: NCI60 five-dose screen; conditions: Homo sapiens
SF-539 = experiment: NCI60 five-dose screen; conditions: Homo sapiens
NCI-H23 = experiment: NCI60 one-dose screen; conditions: Homo sapiens
UACC-257 [11] = experiment: NCI60 five-dose screen; conditions: Homo sapiens
HCT-15 [12] = experiment: NCI60 five-dose screen; conditions: Homo sapiens
NCI-H522 [13] = experiment: NCI60 one-dose screen; conditions: Homo sapiens
CCRF-CEM = experiment: NCI60 one-dose screen; conditions: Homo sapiens, read-out: Growth percent
KM12 = experiment: NCI60 five-dose screen; conditions: Homo sapiens
RXF 393 = experiment: NCI60 five-dose screen; conditions: Homo sapiens
CAKI-1 [14] = experiment: NCI60 five-dose screen; conditions: Homo sapiens
NCI-H322M = experiment: NCI60 one-dose screen; conditions: Homo sapiens, read-out: Growth percent
UACC-257 [15] = experiment: NCI60 one-dose screen; conditions: Homo sapiens
LOX IMVI [16] = experiment: NCI60 five-dose screen; conditions: Homo sapiens
SK-MEL-5 [17] = experiment: NCI60 one-dose screen; conditions: Homo sapiens
UO-31 = experiment: NCI60 one-dose screen; conditions: Homo sapiens

CC[C@]12C=CCN3CC[C@@]4(c5ccc(OC)cc5N(C)[C@H]4[C@@](O)(C(=O)OC)[C@@H]1OC(=O)CCCC[P+](c1ccc(F)cc1)(c1ccc(F)cc1)c1ccc(F)cc1)[C@@H]32 [10c]
activity at 10 µM (TK-10; TK-10, 10 μM, one-dose, read-out: Growth percent): 70.2% | GI50 (HCT-116; HCT-116, Colon Cancer, read-out: GI50): 25.9 µM | GI50 (786-0; 786-0, Renal Cancer, read-out: GI50): 34.1 µM | activity at 10 µM (OVCAR-3; OVCAR-3, 10 μM, one-dose, read-out: Growth percent): 12.6% | activity at 10 µM (MCF7 [1]; MCF7, 10 μM, one-dose, read-out: Growth percent): 5.18% | activity at 10 µM (SNB-19; SNB-19, 10 μM, one-dose, read-out: Growth percent): 6.61% | activity at 10 µM (SNB-75; SNB-75, 10 μM, one-dose, read-out: Growth percent): -5.3% | activity at 10 µM (OVCAR-5; OVCAR-5, 10 μM, one-dose, read-out: Growth percent): 49.7% | GI50 (MALME-3M; MALME-3M, Melanoma, read-out: GI50): 13.5 µM | activity at 10 µM (HCT-15 [2]; HCT-15, 10 μM, one-dose, read-out: Growth percent): 102% | GI50 (IGROV1 [3]; IGROV1, Ovarian Cancer, read-out: GI50): 10.8 µM | GI50 (MDA-MB-468; MDA-MB-468, MDA-MB-468, Breast Cancer, read-out: GI50): 2.61 µM | GI50 ([4]; mean over Non-small Cell Lung Cancer panel): 24.3 µM | activity at 10 µM (T-47D; T-47D, 10 μM, one-dose): 12.8% | GI50 (NCI-H522 [5]; NCI-H522, Non-small Cell Lung Cancer, read-out: GI50): 5.44 µM | GI50 (MOLT-4; MOLT-4, Leukemia, read-out: GI50): 14.7 µM | GI50 (MCF7 [6]; MCF7, MCF7, Breast Cancer, read-out: GI50): 11.5 µM | activity at 10 µM (CAKI-1 [7]; CAKI-1, 10 μM, one-dose, read-out: Growth percent): 73.2% | GI50 (Colon Cancer panel; mean over Colon Cancer panel): 26.9 µM | activity at 10 µM (OVCAR-4; OVCAR-4, 10 μM, one-dose, read-out: Growth percent): 33.1% | GI50 (RPMI-8226; RPMI-8226, Leukemia, read-out: GI50): 2.97 µM | GI50 (HCC-2998; HCC-2998, Colon Cancer, read-out: GI50): 12.5 µM | GI50 (Leukemia panel; mean over Leukemia panel): 9.86 µM | GI50 (Ovarian Cancer panel; mean over Ovarian Cancer panel): 32.5 µM | GI50 (Melanoma panel; mean over Melanoma panel): 12.5 µM | activity at 10 µM (IGROV1 [8]; IGROV-1, IGROV1, 10 μM, one-dose, read-out: Growth percent): -42.8% | activity at 10 µM (M14; M14, 10 μM, one-dose, read-out: Growth percent): 19.7% | activity at 10 µM (NCI-H460; NCI-H460, 10 μM, one-dose, read-out: Growth percent): 20.3% | activity at 10 µM (LOX IMVI [9]; 10 μM, one-dose): 25% | activity at 10 µM (A549/ATCC; A549/ATCC, 10 μM, one-dose, read-out: Growth percent): 37.5% | GI50 (Breast Cancer panel; mean over Breast Cancer panel): 11.1 µM | GI50 (SK-MEL-28; SK-MEL-28, Melanoma, read-out: GI50): 8.28 µM | GI50 (SK-MEL-5 [10]; SK-MEL-5, Melanoma, read-out: GI50): 17.1 µM | GI50 (SF-539; SF-539, CNS Cancer, read-out: GI50): 21.9 µM | activity at 10 µM (NCI-H23; NCI-H23, 10 μM, one-dose, read-out: Growth percent): 23.6% | GI50 (UACC-257 [11]; UACC-257, UACC-257, Melanoma, read-out: GI50): 5.59 µM | GI50 (HCT-15 [12]; HCT-15, Colon Cancer, read-out: GI50): > 100 µM | activity at 10 µM (NCI-H522 [13]; NCI-H522, 10 μM, one-dose, read-out: Growth percent): -11.6% | activity at 10 µM (CCRF-CEM; 10 μM, one-dose): 19.9% | GI50 (KM12; KM12, KM12, Colon Cancer, read-out: GI50): 13.4 µM | GI50 (RXF 393; RXF 393, Renal Cancer, read-out: GI50): 13.3 µM | GI50 (CAKI-1 [14]; CAKI-1, Renal Cancer, read-out: GI50): > 100 µM | activity at 10 µM (NCI-H322M; 10 μM, one-dose): 52.9% | activity at 10 µM (UACC-257 [15]; UACC-257, 10 μM, one-dose, read-out: Growth percent): -50.7% | GI50 (LOX IMVI [16]; Melanoma, read-out: GI50): 16.8 µM | activity at 10 µM (SK-MEL-5 [17]; SK-MEL-5, 10 μM, one-dose, read-out: Growth percent): -59.6% | activity at 10 µM (UO-31; UO-31, 10 μM, one-dose, read-out: Growth percent): 85.9%

CC[C@]12C=CCN3CC[C@@]4(c5ccc(OC)cc5N(C)[C@H]4[C@@](O)(C(=O)OC)[C@@H]1OC(=O)CCCC[P+](C1CCCCC1)(C1CCCCC1)C1CCCCC1)[C@@H]32 [10d]
activity at 10 µM (TK-10; TK-10, read-out: Growth percent): -64.1% | GI50 (HCT-116; HCT-116): 2.94 µM | GI50 (786-0; 786-0): 5.43 µM | activity at 10 µM (OVCAR-3; OVCAR-3, read-out: Growth percent): -60.3% | activity at 10 µM (MCF7 [1]; MCF7, read-out: Growth percent): -64.2% | activity at 10 µM (SNB-19; SNB-19, read-out: Growth percent): -71.1% | activity at 10 µM (SNB-75; SNB-75, read-out: Growth percent): -81.4% | activity at 10 µM (OVCAR-5; OVCAR-5, read-out: Growth percent): 5.84% | GI50 (MALME-3M; Malme-3M): 1.63 µM | activity at 10 µM (HCT-15 [2]; HCT-15, read-out: Growth percent): 75.2% | GI50 (IGROV1 [3]): 1.36 µM | GI50 (MDA-MB-468; MDA-MB-468): 0.378 µM | GI50 [4]: 2.95 µM | activity at 10 µM (T-47D): 3.83% | GI50 (NCI-H522 [5]; NCI-H522): 0.642 µM | GI50 (MOLT-4; MOLT-4): 1.72 µM | GI50 (MCF7 [6]; MCF7): 1.05 µM | activity at 10 µM (CAKI-1 [7]; CAKI-1, read-out: Growth percent): -24.1% | GI50 (Colon Cancer panel): 3.8 µM | activity at 10 µM (OVCAR-4; OVCAR-4, read-out: Growth percent): 12.4% | GI50 (RPMI-8226; RPMI-8226): 0.412 µM | GI50 (HCC-2998; HCC 2998): 1.31 µM | GI50 (Leukemia panel): 1.22 µM | GI50 (Ovarian Cancer panel): 11.4 µM | GI50 (Melanoma panel): 1.96 µM | activity at 10 µM (IGROV1 [8]; IGROV-1, read-out: Growth percent): -84.7% | activity at 10 µM (M14; M14, read-out: Growth percent): -83.5% | activity at 10 µM (NCI-H460; NCI-H460, read-out: Growth percent): 5.27% | activity at 10 µM (LOX IMVI [9]): -96.1% | activity at 10 µM (A549/ATCC; A549, read-out: Growth percent): 11.7% | GI50 (Breast Cancer panel): 1.48 µM | GI50 (SK-MEL-28; SK-MEL-28): 1.38 µM | GI50 (SK-MEL-5 [10]; SK-MEL-5): 1.88 µM | GI50 (SF-539; SF-539): 2.85 µM | activity at 10 µM (NCI-H23; NCI-H23, read-out: Growth percent): -9.66% | GI50 (UACC-257 [11]; UACC-257): 1.57 µM | GI50 (HCT-15 [12]; HCT-15): 16.1 µM | activity at 10 µM (NCI-H522 [13]; NCI-H522, read-out: Growth percent): -71.8% | activity at 10 µM (CCRF-CEM): -60.2% | GI50 (KM12; KM12): 1.72 µM | GI50 (RXF 393; RXF 393): 1.24 µM | GI50 (CAKI-1 [14]; CAKI-1): 16.7 µM | activity at 10 µM (NCI-H322M): 16.1% | activity at 10 µM (UACC-257 [15]; UACC-257, read-out: Growth percent): -82.1% | GI50 (LOX IMVI [16]): 2.9 µM | activity at 10 µM (SK-MEL-5 [17]; SK-MEL-5, read-out: Growth percent): -96.2% | activity at 10 µM (UO-31; UO-31, read-out: Growth percent): 78.9%

From publication PMC12028158, “Synthesis and In Vitro Evaluation of the Anticancer Effect of Novel Phosphonium Vindoline Derivatives” (International Journal of Molecular Sciences, 2025)
